According to article PMC7997574, “Lead Optimization of Benzoxazolone Carboxamides as Orally Bioavailable and CNS Penetrant Acid Ceramidase Inhibitors” (Journal of Medicinal Chemistry, 2020):
Values joined by “and” are separate entries in the source; they are usually repeats but may differ in a detail not shown here. Equal entries are not always repeated.

Assays:
[1] = Plasma and brain concentrations in Twitcher mice; assay type: in vivo; conditions: both sexes, Twitcher (GALC–/−), mouse, ip, 1 h after last dose (day 20)
Experimental: (§1) 4L;C* mice (C57BL/6 J/129SvEV) were randomly assigned to three treatment groups (N = 4–8 with mixed males and females) and dosed once a day i.p. with 90 or 30 mg kg^–1 of 22m or vehicle. Treatment started at 5 days of age for a duration of 14 days. The application volume was set to 10 μL per gram of body weight, and dosage was adjusted accordingly. Animals of all groups were sacrificed 1 h after the last dose, and the brain tissues and plasma were collected. The left brain containing cortex, cerebella, thalamus, and brainstem was analyzed for SphL levels by MS. Data were analyzed using the Student t test. The right brain containing cortex, cerebella, thalamus, and brainstem and plasma were analyzed for drug levels of 22m. All mice were housed under pathogen-free conditions in the animal facility, and animal experiment was performed according to the IACUC approved protocol (2018-0056) at Cincinnati Children’s Hospital Research Foundation. Wild Type (WT) (GALC+/+) and Twitcher (Twi) (GALC–/−) mice were genotyped by PCR as previously described.[58] Twi mice were randomly assigned to three treatment groups (N = 3 males + N = 3 females for each group) and dosed once a day i.p. with 90 or 30 mg kg^–122m or vehicle for a duration of 20 days. Treatment started at 10 days of age. The application volume was set to 10 μL per gram of body weight, and dosage was adjusted accordingly. Two groups (N = 3 males + N = 3 females for each group) of WT controls treated with vehicle or high dose (90 mg kg^–1) of 22m were also included in the study. Animals of all groups were sacrificed 1 h after the last dose, and the brain tissues and plasma were collected. The left brain containing cortex, cerebella, thalamus, and brainstem was analyzed for SphL levels by MS. Data were analyzed using the Student t test. The right brain containing cortex, cerebella, thalamus, and brainstem and plasma were analyzed for drug levels of 22m. All animal work in this study was performed in accordance with approved animal protocols from the Animal Care and Use Committee at the University of Illinois at Chicago.

[2] = Plasma and brain concentrations in 4L;C* mice; assay type: in vivo, mouse; conditions: 1 h after last dose (day 14)
Experimental: as §1

[3] = tested on: GalSph (d18:1); test: Brain GalSph levels in Twitcher mice (Krabbe's disease model); assay type: in vivo, mouse; conditions: for reduction of GalSph (d18:1) levels in the brains: Twitcher mice; for GalSph(d18:1) change (Figure 8): brain
Experimental: as §1

[4] = In vitro mouse plasma protein binding (equilibrium dialysis); assay type: in vitro ADME; conditions: read-out: Fp, u (%) plasma fraction unbounded
Experimental: Studies were performed by the DMPK Group at Shanghai ChemPartner Co., Ltd., using the equilibrium dialysis method. Values are the mean of two technical replicates.

[5] = tested on: GluSph (d18:1); test: Brain GluSph levels in 4L;C* mice (neuropathic Gaucher's disease model); assay type: in vivo, mouse
Experimental: 4L;C* mice (C57BL/6 J/129SvEV) were randomly assigned to three treatment groups (N = 4–8 with mixed males and females) and dosed once a day i.p. with 90 or 30 mg kg^–1 of 22m or vehicle. Treatment started at 5 days of age for a duration of 14 days. The application volume was set to 10 μL per gram of body weight, and dosage was adjusted accordingly. Animals of all groups were sacrificed 1 h after the last dose, and the brain tissues and plasma were collected. The left brain containing cortex, cerebella, thalamus, and brainstem was analyzed for SphL levels by MS. Data were analyzed using the Student t test. The right brain containing cortex, cerebella, thalamus, and brainstem and plasma were analyzed for drug levels of 22m. All mice were housed under pathogen-free conditions in the animal facility, and animal experiment was performed according to the IACUC approved protocol (2018-0056) at Cincinnati Children’s Hospital Research Foundation. Wild Type (WT) (GALC+/+) and Twitcher (Twi) (GALC–/−) mice were genotyped by PCR as previously described.[58] […] The left brain containing cortex, cerebella, thalamus, and brainstem was analyzed for SphL levels by MS. Data were analyzed using the Student t test. The right brain containing cortex, cerebella, thalamus, and brainstem and plasma were analyzed for drug levels of 22m. […]

[6] = biological target: T1, AC (Homo sapiens, UniProt Q13510); test: Kinetic studies on hAC-enriched lysates (Michaelis–Menten analysis, ki/KI); assay type: biochemical; parameters: expressed in transfected cells; conditions: time-dependent inhibition of hAC
T1 sequence (Q13510 22-395): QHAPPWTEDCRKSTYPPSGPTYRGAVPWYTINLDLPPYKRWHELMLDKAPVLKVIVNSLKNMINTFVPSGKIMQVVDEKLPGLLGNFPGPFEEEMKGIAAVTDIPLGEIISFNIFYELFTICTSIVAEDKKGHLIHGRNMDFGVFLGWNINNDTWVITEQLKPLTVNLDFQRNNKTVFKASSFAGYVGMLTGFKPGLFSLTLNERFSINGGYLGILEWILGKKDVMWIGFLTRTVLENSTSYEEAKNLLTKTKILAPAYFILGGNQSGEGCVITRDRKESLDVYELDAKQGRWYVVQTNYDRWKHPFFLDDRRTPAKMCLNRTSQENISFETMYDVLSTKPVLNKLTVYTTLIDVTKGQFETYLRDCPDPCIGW
Experimental: Assay conditions for the kinetic studies were the same as those described for the fluorogenic hAC assay. Enzyme-enriched lysate (2 μg) was incubated with the following concentrations of substrate Rbm14–12: 0.25, 0.5, 1, 2.5, 5, 10, 12.5, and 15 μM. Compound 22m was used at final concentrations of 100 and 400 nM. Initial velocities (V0) were determined and automatically fitted to the Michaelis–Menten equation to obtain the kinetic parameters (KM and Vmax). The graph is representative of two independent experiments, each performed in three technical replicates. Graphs and data analysis were performed using GraphPad Prism 5 software (GraphPad Software Inc., CA, USA).
hAC activity was measured as a function of reaction time in the presence of different concentrations of 22m. The apparent inactivation rate constant of hAC (kobs) was analyzed by nonlinear square fitting each data set to the pseudo-first-order rate equation Y = vi(1 – exp(−kobst))/kobs. Replotting of calculated kobs vs [22m] was made, and the kinetic parameter ki/KI was calculated by nonlinear square fitting data to the equation Y = kiI/(KI + I). The graphs are representative of two independent experiments, each performed in two technical replicates.

Q: Which concentration at 1 h ([1]; brain, 30 mg kg^–1, Twitcher mice, 30 mg kg^–1 i.p., read-out: Cb (μM) brain concentration) does the source give for `CC(C)CNC(=O)n1c(=O)oc2cc(C3CCN(C)CC3)ccc21` [22m, N-Isobutyl-6-(1-methyl-4-piperidyl)-2-oxo-1,3-benzoxazole-3-carboxamide] here?
A: Its concentration at 1 h is 114 µM.

Q: What about the concentration at 1 h ([1]; brain, 30 mg kg^–1, Twitcher mice, 30 mg kg^–1 i.p., read-out: Cb, u (μM) brain unbounded concentration) of the same compound?
A: Its concentration at 1 h is 0.8 µM.

Q: And the concentration at 1 h ([1]; brain, 90 mg kg^–1, Twitcher mice, 90 mg kg^–1 i.p., read-out: Cb (μM) brain concentration)?
A: Its concentration at 1 h is 308 µM.

Q: What about the concentration at 1 h ([1]; brain, 90 mg kg^–1, Twitcher mice, 90 mg kg^–1 i.p., read-out: Cb, u (μM) brain unbounded concentration) of the same compound?
A: Its concentration at 1 h is 2.15 µM.

Q: What about the concentration at 1 h ([1]; plasma, 30 mg kg^–1, Twitcher mice, 30 mg kg^–1 i.p., read-out: Cp (μM) plasma concentration) of the same compound?
A: Its concentration at 1 h is 0.85 µM.

Q: And the concentration at 1 h ([1]; plasma, 30 mg kg^–1, Twitcher mice, 30 mg kg^–1 i.p., read-out: Cp,u (μM) plasma unbounded concentration)?
A: Its concentration at 1 h is 0.11 µM.

Q: What about the concentration at 1 h ([1]; plasma, 90 mg kg^–1, Twitcher mice, 90 mg kg^–1 i.p., read-out: Cp (μM) plasma concentration) of the same compound?
A: Its concentration at 1 h is 3.85 µM.

Q: And the concentration at 1 h ([1]; plasma, 90 mg kg^–1, Twitcher mice, 90 mg kg^–1 i.p., read-out: Cp,u (μM) plasma unbounded concentration)?
A: The concentration at 1 h was 0.52 µM.

Q: And the concentration at 1 h ([2]; 4L;C* mice, 90 mg kg^–1 i.p., read-out: Cb, u (μM) brain unbounded concentration)?
A: The concentration at 1 h was 2.61 µM.

Q: What about the concentration at 1 h ([2]; both sexes, 4L;C* (C57BL/6 J/129SvEV), mouse, brain, ip, 30 mg kg^–1, 4L;C* mice, 30 mg kg^–1 i.p., read-out: Cb (μM) brain concentration) of the same compound?
A: Its concentration at 1 h is 110 µM.

Q: And the concentration at 1 h ([2]; both sexes, 4L;C* (C57BL/6 J/129SvEV), mouse, brain, ip, 30 mg kg^–1, 4L;C* mice, 30 mg kg^–1 i.p., read-out: Cb, u (μM) brain unbounded concentration)?
A: Its concentration at 1 h is 0.77 µM.

Q: And the concentration at 1 h ([2]; both sexes, 4L;C* (C57BL/6 J/129SvEV), mouse, brain, ip, 90 mg kg^–1, 4L;C* mice, 90 mg kg^–1 i.p., read-out: Cb (μM) brain concentration)?
A: Its concentration at 1 h is 373 µM.

Q: And the concentration at 1 h ([2]; both sexes, 4L;C* (C57BL/6 J/129SvEV), mouse, brain, ip, 90 mg kg^–1, 4L;C* mice, 90 mg kg^–1 i.p., read-out: Cb, u (μM) brain unbounded concentration)?
A: The concentration at 1 h was 2.6 µM.

Q: What about the concentration at 1 h ([2]; both sexes, 4L;C* (C57BL/6 J/129SvEV), mouse, plasma, ip, 30 mg kg^–1, 4L;C* mice, 30 mg kg^–1 i.p., read-out: Cp (μM) plasma concentration) of the same compound?
A: The concentration at 1 h was 3.08 µM.

Q: And the concentration at 1 h ([2]; both sexes, 4L;C* (C57BL/6 J/129SvEV), mouse, plasma, ip, 30 mg kg^–1, 4L;C* mice, 30 mg kg^–1 i.p., read-out: Cp,u (μM) plasma unbounded concentration)?
A: Its concentration at 1 h is 0.42 µM.

Q: And the concentration at 1 h ([2]; both sexes, 4L;C* (C57BL/6 J/129SvEV), mouse, plasma, ip, 90 mg kg^–1, 4L;C* mice, 90 mg kg^–1 i.p., read-out: Cp (μM) plasma concentration)?
A: The concentration at 1 h was 16.8 µM.

Q: What about the concentration at 1 h ([2]; both sexes, 4L;C* (C57BL/6 J/129SvEV), mouse, plasma, ip, 90 mg kg^–1, 4L;C* mice, 90 mg kg^–1 i.p., read-out: Cp,u (μM) plasma unbounded concentration) of the same compound?
A: The concentration at 1 h was 2.32 µM.

Q: What about the “reduction of GalSph (d18:1) levels in the brains” value ([3]; 30 mg kg^–1 i.p. once daily for 20 days) of the same compound?
A: Its value is 41%.

Q: What about the “reduction of GalSph (d18:1) levels in the brains” value ([3]; 90 mg kg^–1 i.p. once daily for 20 days) of the same compound?
A: Its value is 72%.

Q: What about the “GalSph(d18:1) change (Figure 8)” value ([3]; Twi 30 mg/kg i.p.) of the same compound?
A: Its value is -41%.

Q: What about the “GalSph(d18:1) change (Figure 8)” value ([3]; Twi 90 mg/kg i.p.) of the same compound?
A: Its value is -72%.

Q: What about the fraction unbound [4] of the same compound?
A: The fraction unbound was 0.138.

Q: And the “effect on brain GluSph (d18:1)” value ([5]; 30 and 90 mg kg^–1 i.p. once a day for 14 days)?
A: The value was “significantly reduces GluSph (d18:1) in the brain of 4L;C* mice in a dose-dependent manner”.

Q: What about the “reduction of the GluSph levels relative to control” value ([5]; brain, 90 mg kg^–1 i.p. once a day for 14 days) of the same compound?
A: Its value is 54%.

Q: And the ki [6]?
A: Its ki is 0.15 min^–1.

Q: And the ki/KI [6]?
A: The ki/KI was 0.02 μM^–1 min^–1 and 0.02±0.001 μM^–1 min^–1.
